Blank lines part the entries; values can stand above or below the compound they belong to.
Key:
[1] = molecular target: Mitogen-activated protein kinase 9 (Homo sapiens, UniProt P45984); experiment: Selectivity interaction (LanthaScreen Eu Kinase Binding Assay) EUB0001632a MAPK9; details: at 10 µM
[2] = molecular target: Protein arginine N-methyltransferase 8 (Homo sapiens, UniProt Q9NR22); experiment: Selectivity interaction (Methyltransferase screen (radiometric assays, panel of 8 PRMTs, 21 protein lysine methyltransferases, 3 DNA methyltransferases, and one RNA methyltransferase)) EUB0000272b PRMT8
Protein arginine N-methyltransferase 8, sequence (Q9NR22 2-394 limits assumed): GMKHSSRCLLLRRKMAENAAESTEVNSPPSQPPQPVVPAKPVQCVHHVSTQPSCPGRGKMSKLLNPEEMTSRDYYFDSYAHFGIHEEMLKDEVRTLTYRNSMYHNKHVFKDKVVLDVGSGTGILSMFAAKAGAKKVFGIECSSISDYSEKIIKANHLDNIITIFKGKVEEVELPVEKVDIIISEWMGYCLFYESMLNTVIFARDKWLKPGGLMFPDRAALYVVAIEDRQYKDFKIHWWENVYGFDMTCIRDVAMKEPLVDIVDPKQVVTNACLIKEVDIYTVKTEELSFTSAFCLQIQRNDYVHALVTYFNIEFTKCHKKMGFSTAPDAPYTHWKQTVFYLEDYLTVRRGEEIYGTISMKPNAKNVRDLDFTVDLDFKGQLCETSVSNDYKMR

[3] = molecular target: Serine/threonine-protein kinase MRCK gamma (Homo sapiens) (UniProt Q6DT37); experiment: Selectivity interaction (KinomeScan (DiscoverX)) EUB0000607a CDC42BPG; details: at 10 µM
Serine/threonine-protein kinase MRCK gamma (Homo sapiens), sequence (Q6DT37 whole entry): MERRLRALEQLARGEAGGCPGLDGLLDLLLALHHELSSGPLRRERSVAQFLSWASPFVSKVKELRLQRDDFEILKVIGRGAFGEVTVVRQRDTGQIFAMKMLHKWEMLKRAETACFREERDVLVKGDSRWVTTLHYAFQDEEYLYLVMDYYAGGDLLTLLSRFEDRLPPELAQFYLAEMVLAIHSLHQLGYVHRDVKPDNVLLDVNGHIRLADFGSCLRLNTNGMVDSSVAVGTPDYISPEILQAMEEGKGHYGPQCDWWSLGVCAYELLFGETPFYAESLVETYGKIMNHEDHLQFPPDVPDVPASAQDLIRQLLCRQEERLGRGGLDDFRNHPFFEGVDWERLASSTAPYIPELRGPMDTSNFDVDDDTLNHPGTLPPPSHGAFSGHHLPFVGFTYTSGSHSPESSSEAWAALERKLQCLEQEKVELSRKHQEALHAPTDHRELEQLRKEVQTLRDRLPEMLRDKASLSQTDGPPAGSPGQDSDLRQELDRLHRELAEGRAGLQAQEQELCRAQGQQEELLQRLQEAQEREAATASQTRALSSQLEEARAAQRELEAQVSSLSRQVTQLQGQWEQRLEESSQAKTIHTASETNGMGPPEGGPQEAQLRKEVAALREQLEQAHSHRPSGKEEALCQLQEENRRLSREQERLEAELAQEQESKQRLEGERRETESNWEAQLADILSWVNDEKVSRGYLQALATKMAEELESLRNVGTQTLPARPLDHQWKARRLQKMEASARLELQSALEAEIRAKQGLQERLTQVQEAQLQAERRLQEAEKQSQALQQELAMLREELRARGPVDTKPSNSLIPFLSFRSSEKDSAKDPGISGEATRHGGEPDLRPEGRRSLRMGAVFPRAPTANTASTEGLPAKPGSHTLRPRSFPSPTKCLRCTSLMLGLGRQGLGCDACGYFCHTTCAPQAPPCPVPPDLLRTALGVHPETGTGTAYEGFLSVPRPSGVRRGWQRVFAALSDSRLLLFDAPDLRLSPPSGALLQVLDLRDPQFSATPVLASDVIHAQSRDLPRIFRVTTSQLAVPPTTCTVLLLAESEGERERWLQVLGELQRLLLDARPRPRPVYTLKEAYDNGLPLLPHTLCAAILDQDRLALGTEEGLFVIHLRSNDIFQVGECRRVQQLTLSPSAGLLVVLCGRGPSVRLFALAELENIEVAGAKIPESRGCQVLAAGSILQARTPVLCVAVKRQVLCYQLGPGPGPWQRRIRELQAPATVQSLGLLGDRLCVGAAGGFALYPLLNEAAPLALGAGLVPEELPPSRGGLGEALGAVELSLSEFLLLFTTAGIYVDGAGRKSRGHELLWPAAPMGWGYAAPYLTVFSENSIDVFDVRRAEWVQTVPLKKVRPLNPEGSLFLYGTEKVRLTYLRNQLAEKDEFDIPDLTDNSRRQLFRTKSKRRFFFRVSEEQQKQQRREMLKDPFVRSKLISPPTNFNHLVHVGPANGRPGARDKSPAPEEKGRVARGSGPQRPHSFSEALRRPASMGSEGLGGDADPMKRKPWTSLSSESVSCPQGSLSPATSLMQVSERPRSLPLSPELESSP

[4] = molecular target: Serine/threonine-protein kinase WNK2 (Homo sapiens) (UniProt Q9Y3S1); experiment: Selectivity interaction (ActivX KiNativ screen (kinase selectivity in THP-1 cell lysates)) EUB0000639a WNK2; format: subcellular; details: lysate, at 0.2 µM
[5] = molecular target: Phosphatidylinositol 4-phosphate 5-kinase type-1 alpha (Homo sapiens) (UniProt Q99755); experiment: Selectivity interaction (KinomeScan (DiscoverX)) EUB0000695a PIP5K1A; details: at 100 nM
Phosphatidylinositol 4-phosphate 5-kinase type-1 alpha (Homo sapiens), sequence (Q99755 whole entry): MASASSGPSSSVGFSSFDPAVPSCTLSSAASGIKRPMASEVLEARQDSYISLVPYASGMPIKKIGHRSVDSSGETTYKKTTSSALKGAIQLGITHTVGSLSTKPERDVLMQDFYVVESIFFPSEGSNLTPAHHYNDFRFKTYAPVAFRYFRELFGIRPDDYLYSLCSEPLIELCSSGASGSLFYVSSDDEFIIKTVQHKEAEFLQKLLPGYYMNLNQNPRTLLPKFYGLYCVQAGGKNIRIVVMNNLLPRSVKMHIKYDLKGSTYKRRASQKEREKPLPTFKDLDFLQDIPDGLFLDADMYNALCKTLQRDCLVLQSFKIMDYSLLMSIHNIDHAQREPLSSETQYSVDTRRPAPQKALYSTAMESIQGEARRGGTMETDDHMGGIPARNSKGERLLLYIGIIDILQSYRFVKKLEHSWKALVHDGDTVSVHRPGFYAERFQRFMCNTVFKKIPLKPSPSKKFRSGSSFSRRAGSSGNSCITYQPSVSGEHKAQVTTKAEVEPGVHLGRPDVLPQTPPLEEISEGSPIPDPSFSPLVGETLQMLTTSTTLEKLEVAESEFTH

[6] = molecular target: T1, Tyrosine-protein kinase ITK/TSK (Homo sapiens) (UniProt Q08881); experiment: Selectivity interaction (KinomeScan (DiscoverX)) EUB0001049a ITK; details: at 1 µM
T1 sequence (whole entry): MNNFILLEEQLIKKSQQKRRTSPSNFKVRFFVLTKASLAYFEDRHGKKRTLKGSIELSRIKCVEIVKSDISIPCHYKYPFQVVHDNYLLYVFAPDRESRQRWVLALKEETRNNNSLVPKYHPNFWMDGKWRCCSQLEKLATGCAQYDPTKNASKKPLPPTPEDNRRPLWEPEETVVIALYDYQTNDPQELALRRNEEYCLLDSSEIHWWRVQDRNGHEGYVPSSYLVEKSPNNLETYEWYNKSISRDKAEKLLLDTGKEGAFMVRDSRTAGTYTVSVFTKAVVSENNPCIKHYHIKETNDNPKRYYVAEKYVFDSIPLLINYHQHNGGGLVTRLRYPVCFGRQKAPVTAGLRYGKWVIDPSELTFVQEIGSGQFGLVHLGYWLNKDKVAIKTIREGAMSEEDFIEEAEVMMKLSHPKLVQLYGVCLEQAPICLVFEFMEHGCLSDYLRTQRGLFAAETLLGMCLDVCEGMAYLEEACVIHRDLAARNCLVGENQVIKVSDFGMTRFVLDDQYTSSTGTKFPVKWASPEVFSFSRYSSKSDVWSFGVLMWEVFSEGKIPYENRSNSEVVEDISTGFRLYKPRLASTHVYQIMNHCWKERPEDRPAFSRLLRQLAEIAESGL

[7] = molecular target: T2, Dual specificity tyrosine-phosphorylation-regulated kinase 2 (Homo sapiens, UniProt Q92630); experiment: Selectivity interaction (Enzymatic assay (Eurofins)) EUB0001049a DYRK2
T2 sequence (Q92630 whole entry): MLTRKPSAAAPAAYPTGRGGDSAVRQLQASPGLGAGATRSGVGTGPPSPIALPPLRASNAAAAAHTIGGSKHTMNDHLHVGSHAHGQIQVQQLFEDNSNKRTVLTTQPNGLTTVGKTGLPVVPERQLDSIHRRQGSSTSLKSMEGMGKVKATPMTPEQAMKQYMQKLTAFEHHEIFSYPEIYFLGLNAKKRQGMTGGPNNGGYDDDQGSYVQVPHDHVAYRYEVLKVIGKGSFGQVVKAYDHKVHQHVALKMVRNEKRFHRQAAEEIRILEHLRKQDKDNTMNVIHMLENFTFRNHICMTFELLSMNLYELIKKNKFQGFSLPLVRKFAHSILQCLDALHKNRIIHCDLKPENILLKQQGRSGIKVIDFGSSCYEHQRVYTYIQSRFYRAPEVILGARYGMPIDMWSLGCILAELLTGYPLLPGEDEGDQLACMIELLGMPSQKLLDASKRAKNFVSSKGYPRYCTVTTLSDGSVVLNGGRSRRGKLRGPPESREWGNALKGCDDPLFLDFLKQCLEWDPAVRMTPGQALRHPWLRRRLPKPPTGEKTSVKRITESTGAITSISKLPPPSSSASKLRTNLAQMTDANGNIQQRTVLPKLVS

[8] = molecular target: T3, Inhibitor of nuclear factor kappa-B kinase subunit epsilon (Homo sapiens) (UniProt Q14164); experiment: Selectivity interaction (Kinase panel (KiNativ target engagement assay in Jurkat cells)) EUB0001635a IKBKE; format: cell-based; details: at 1 µM
T3 sequence (whole entry): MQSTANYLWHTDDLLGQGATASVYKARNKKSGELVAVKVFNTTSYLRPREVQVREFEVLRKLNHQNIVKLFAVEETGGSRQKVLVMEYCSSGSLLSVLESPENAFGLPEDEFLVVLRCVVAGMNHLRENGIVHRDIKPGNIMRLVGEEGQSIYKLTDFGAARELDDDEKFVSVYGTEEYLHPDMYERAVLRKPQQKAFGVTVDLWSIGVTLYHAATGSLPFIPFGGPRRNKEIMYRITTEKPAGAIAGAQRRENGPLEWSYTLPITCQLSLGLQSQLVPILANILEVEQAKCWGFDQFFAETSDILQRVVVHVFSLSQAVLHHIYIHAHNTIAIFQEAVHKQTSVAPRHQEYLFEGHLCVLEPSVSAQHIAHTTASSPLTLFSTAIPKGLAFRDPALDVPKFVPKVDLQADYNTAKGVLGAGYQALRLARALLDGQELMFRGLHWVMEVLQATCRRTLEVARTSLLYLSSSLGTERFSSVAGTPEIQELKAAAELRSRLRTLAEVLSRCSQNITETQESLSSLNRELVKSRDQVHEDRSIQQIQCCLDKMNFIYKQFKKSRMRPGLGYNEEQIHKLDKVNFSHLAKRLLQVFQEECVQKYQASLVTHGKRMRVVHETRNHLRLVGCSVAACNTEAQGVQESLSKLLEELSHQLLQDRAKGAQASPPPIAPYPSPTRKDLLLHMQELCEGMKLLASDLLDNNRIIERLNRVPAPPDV

[9] = molecular target: Serine/threonine-protein kinase PLK1 (Homo sapiens, UniProt P53350); details: at 10 µM
Serine/threonine-protein kinase PLK1, sequence (P53350 whole entry): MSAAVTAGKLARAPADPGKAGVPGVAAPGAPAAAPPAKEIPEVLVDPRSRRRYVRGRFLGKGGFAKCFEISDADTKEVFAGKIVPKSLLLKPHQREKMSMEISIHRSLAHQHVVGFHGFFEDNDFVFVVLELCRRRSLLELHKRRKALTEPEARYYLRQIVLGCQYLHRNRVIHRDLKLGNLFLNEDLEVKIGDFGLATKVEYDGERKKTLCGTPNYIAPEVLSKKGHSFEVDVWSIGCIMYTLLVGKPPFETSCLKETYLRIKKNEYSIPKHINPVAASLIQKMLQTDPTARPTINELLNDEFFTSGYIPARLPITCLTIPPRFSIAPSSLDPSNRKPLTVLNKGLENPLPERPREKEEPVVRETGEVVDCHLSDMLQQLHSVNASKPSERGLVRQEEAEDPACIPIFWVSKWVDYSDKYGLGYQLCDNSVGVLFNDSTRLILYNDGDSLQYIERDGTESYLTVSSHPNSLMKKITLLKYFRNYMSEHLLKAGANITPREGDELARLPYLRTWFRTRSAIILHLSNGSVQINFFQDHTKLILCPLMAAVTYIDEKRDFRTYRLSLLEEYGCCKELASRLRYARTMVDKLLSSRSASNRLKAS

Mitogen-activated protein kinase 9, sequence (P45984 whole entry, looked up): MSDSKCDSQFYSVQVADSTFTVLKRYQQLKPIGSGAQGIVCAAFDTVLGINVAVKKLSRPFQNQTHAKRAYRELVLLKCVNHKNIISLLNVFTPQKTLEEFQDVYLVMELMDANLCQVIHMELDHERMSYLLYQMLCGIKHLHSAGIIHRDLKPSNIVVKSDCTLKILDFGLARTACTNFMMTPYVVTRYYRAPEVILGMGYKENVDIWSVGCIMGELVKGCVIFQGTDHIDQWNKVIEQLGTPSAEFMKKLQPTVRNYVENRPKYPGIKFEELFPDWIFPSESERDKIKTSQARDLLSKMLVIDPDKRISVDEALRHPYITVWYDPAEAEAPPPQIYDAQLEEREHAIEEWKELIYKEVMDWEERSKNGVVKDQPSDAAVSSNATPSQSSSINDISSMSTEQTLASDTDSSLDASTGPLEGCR

% of inhibition [1]: -21.2%
Compound: Cn1cc(-n2cnc3c(NCc4nc5cc(Cl)c(Cl)cc5[nH]4)nc(N4CCOCC4)nc32)cn1

% of activity ([2]; at 1 µM): 100%
% of activity ([2]; at 10 µM): 96.7%
Compound: Cc1cc(C)cc([C@H]2c3cc(C)ccc3NC(=O)CN2C(=O)c2ccc(Br)s2)c1

Compound: CNC(=O)Nc1ccc(-c2nc(N3CC4CCC(C3)O4)c3cnn(C4CCC5(CC4)OCCO5)c3n2)cc1
% of control [3]: 84%

% of inhibition [4]: -12%
Compound: CC[C@@H]1[C@H](F)C(=O)N[C@@H]1COc1nccc2cc(C(N)=O)c(OC)cc12 [ZIMLOVISERTIB]

Compound: Cc1cc(F)c(C(=O)Nc2cccc(-c3nncn3C(C)C)n2)cc1-n1cnc(C2CC2)c1
% of control [5]: 78%

Compound: COc1cc(Nc2nc(C)cc(-c3cnn4nc(OC)ccc34)n2)cc(C(F)(F)F)c1
% of control [6]: 82%
IC50 [7]: > 10 µM

Compound: C=CC(=O)Nc1ccc(C(=O)Nc2[nH]nc3c2CN(C(=O)N[C@H](CN(C)C)c2ccccc2)C3(C)C)cc1
% of engagement ([8]; Selectivity number of off-targets 0.0, Selectivity number of targets 233.0, Source Knowledge https://www.sciencedirect.com/science/article/pii/S2451945619300674?via%3Dihub): 28.4%
% of engagement [8]: 32.7%

Compound: Cc1cc([C@@H](C)Nc2ccccc2C(=O)O)c2nc(N3CCOCC3)cc(=O)n2c1 [AZD-6482]
% of control [9]: 100%

Source: ChEMBL document CHEMBL5465560, “Selectivity Literature for EUbOPEN Chemogenomic Library” (2024)
